Counter-ions that a name gives are not always drawn. Like-named read-outs stand apart in the source and are kept apart here.
How the values were obtained:
Thrombin = Thrombin (Homo sapiens, UniProt P00734); assay: In vitro inhibition of thrombin (Ki according to Dixon); format: biochemical
Method: (§1) In order to determine the inhibitory activity, 200 μl Tris buffer (0.05 mol/l containing the inhibitor, 0.154 mol/l NaCl, pH 8.0), 25 μl substrate (Pefachrome uPA, Pefachrome PL or Pefabloc TH in H2O; Pentapharm Ltd, Basle, Switzerland) and 50 μl urokinase (Calbiochem-Novabiochem GmbH, Bad Soden, Germany) or another appropriate protease e.g. plasmin, thrombin or FXa are incubated for 10 minutes at 30° C. After ca. 30 minutes and 30 cycles the absorption is determined at 405 nm by means of a microplate reader (Mediators PHL, Aureon Biosystems, Vienna, Austria). The Ki values were determined according to Dixon by linear regression using a computer program.

urokinase (uPA) = biological target: T1, urokinase (uPA) (Homo sapiens, UniProt P00749); assay: In vitro inhibition of urokinase (Ki according to Dixon, chromogenic substrate); format: biochemical
T1 construct: purchased Calbiochem-Novabiochem GmbH, Bad Soden, Germany
Method: as §1

PK = PK (Homo sapiens, UniProt P03952); assay: In vitro inhibition of PK (Ki); format: biochemical; conditions: summary table
Sequence of PK (P03952 20-638): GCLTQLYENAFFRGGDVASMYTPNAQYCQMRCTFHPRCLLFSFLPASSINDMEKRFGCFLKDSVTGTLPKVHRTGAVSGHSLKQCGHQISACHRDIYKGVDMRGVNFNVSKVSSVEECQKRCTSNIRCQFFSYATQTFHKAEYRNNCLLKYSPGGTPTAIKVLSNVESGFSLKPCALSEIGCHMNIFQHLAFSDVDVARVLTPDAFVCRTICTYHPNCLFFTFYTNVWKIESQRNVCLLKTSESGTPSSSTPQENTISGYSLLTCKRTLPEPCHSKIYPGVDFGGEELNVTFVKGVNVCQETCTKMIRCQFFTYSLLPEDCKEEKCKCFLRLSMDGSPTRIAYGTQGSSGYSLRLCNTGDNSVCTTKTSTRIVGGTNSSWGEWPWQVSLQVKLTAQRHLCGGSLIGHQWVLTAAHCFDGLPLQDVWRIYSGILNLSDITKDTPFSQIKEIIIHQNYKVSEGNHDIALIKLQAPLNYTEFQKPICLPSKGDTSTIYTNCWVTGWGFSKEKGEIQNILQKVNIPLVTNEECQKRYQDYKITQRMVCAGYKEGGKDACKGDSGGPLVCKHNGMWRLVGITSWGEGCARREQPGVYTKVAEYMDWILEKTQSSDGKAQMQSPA
Method: as §1

Plasmin = Plasmin (Homo sapiens, UniProt P00747); assay: In vitro inhibition of plasmin (Ki according to Dixon); format: biochemical
Sequence of Plasmin (P00747 581-810 limits assumed, species assumed): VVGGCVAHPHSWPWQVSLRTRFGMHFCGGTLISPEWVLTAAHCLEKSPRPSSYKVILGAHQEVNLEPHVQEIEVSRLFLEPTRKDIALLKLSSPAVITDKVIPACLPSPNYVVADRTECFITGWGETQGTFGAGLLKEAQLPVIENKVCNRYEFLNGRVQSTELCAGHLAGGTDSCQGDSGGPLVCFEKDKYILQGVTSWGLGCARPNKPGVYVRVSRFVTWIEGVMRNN
Sequence of Plasmin (P00747 97-580 partner limits assumed, species assumed): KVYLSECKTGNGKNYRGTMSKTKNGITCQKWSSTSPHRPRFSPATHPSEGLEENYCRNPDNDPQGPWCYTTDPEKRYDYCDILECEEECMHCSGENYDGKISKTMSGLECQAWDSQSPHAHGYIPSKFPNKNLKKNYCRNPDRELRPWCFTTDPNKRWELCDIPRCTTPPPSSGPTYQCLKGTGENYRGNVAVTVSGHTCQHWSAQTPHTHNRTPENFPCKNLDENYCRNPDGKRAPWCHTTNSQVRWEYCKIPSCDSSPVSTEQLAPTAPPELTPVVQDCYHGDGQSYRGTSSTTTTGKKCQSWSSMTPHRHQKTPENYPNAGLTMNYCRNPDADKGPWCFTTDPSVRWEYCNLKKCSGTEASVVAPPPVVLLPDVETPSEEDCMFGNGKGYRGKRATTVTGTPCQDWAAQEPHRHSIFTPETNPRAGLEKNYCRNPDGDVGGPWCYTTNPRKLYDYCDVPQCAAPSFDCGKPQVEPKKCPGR
Method: as §1

Caco-2 cell monolayers = assay: Caco-assay: transport across Caco-2 cell monolayers; format: in vitro ADME, human; conditions: for % amount in the basolateral compartment: 10 μg/ml apical, four hours
Method: Transport of the compounds WX-508, WXC-316, WXC-318, WXC-324, WXC-340, WX-532, WX-538, WX-550 and WX-582 across Caco-2 cell monolayers was investigated. In this experiment the bioavailability of the said compounds after oral administration was assessed.
Caco-2-cells (American Type Culture Collection, Rockville, Md., USA) were cultured in Dulbecco's modified Eagle medium (DMEM) (Life Technologies, Gibco BRL, UK) containing 10% vol/vol heat-denatured foetal calf serum (FCS), 1% vol/vol non-essential amino acids, 160 U/ml benzylpenicillin and 100 U/ml streptomycin (Sigma Chemical, St. Louis, Mo., USA). The cells are kept at 37° C. in an atmosphere comprising 95% air and 5% CO2 at 90% relative air humidity. The cells are cultured in […] culture flasks, the medium being replaced every second day and the cells are trypsinized once per week.
For the transport investigations the Caco-2 cells are cultured on porous polycarbonate filter membranes having a pore size of 0.4 μm and a surface of 4.7 cm^2 in clusters of 6 wells (Costar Transwell, Badhoevedorp, Netherlands). The cells are inoculated on each filter at an initial density of 10^4 cells/cm^2. These cells are kept at 37° C. in one of the atmospheres described above. The medium is replaced every second day for a period of three weeks.
On the day of the transport experiment the culture medium was replaced by the same volume of Hank's balanced saline solution (HBSS) buffered with 30 mM HEPES at pH 7.2 (transport medium) and the cells are allowed to equilibrate for 1 hour. Afterwards the apical medium is replaced by 1.5 ml of a solution containing one of the compounds in HBSS/HEPES (10 μg/ml). Cell monolayers are incubated for four hours. Samples of the apical and basolateral compartments are removed at the end of the experiments and used to quantitatively determine the transport of the respective compounds.
The transepithelial electric resistance (TEER) is measured before and after equilibration using a Milicell ERS meter which was connected to a pair of electrodes in order to ensure the integrity of the monolayers formed on the filters. TEER is also measured at the end of the experiments to ensure that the cell monolayer remains coherent.
Samples are taken from the apical and the basolateral side and analysed in a beta counter after adding a scintillation cocktail. All experiments were carried out three times.

FXa = FXa (Homo sapiens, UniProt P00742); assay: In vitro inhibition of FXa (Ki according to Dixon); format: biochemical
Sequence of FXa (P00742 235-488 limits assumed): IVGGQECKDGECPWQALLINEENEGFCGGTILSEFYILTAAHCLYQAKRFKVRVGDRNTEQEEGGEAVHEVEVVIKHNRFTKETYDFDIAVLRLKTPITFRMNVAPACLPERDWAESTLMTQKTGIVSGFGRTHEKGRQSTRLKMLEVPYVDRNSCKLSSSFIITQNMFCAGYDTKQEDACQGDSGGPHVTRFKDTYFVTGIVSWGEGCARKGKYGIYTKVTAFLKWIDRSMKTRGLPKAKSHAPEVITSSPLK
Sequence of FXa (P00742 41-179 partner limits assumed): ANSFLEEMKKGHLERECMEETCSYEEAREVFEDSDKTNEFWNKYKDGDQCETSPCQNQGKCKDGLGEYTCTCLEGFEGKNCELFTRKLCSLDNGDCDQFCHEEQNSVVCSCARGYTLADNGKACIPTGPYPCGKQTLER
Method: as §1

[1] = Oral bioavailability and plasma kinetics in mice (serum concentration); format: in vivo, Balb/c mice; conditions: mouse; for concentration at 20 min / concentration at 40 min / concentration at 60 min: female, Balb/c, serum, po; for concentration at 20 min: sample at 20 minutes; for concentration at 40 min: sample at 40 minutes; for concentration at 60 min: sample at 60 minutes
[2] = list of test substances of Example 17, read-out: Ki human uPA
[3] = summary table, read-out: Ki uPA
[4] = 7.5 mg/kg, 7.5 mg/kg oral, read-out: c in the serum 1st analysis
[5] = 75 mg/kg, 75 mg/kg oral, read-out: c in the serum 1st analysis
[6] = 30 mg/kg, 30 mg/kg oral, read-out: c in the serum 1st analysis
[7] = 30 mg/kg, 30 mg/kg oral, read-out: c in the serum 2nd analysis
[8] = 300 mg/kg, 300 mg/kg oral, read-out: c in the serum 1st analysis
[9] = 300 mg/kg, 300 mg/kg oral, read-out: c in the serum 2nd analysis
[10] = 10 mg/kg i.v., time of sample collection 0
[11] = 10 mg/kg i.v., time of sample collection 10
[12] = 10 mg/kg i.v., time of sample collection 30

Row | Ki (Thrombin) [µM] | Ki (Thrombin; summary table) [µM] | Ki (urokinase (uPA); [2]) [µM] | Ki (urokinase (uPA); read-out: Ki uPA) [µM] | Ki (urokinase (uPA); [3]) [µM] | Ki (PK) [µM] | Ki (Plasmin) [µM] | % amount in the basolateral compartment (Caco-2 cell monolayers; first value column) [%] | % amount in the basolateral compartment (Caco-2 cell monolayers; second value column) [%] | % amount in the basolateral compartment (Caco-2 cell monolayers; third value column) [%] | Caco-2 assay % basolateral (Caco-2 cell monolayers; first series, first value) [%] | Caco-2 assay % basolateral (Caco-2 cell monolayers; first series, second value) [%] | Caco-2 assay % basolateral (Caco-2 cell monolayers; first series, third value) [%] | Ki (FXa) [µM] | Ki (FXa; summary table) [µM] | Caco-2 assay % basolateral (Caco-2 cell monolayers; second series, first value) [%] | Caco-2 assay % basolateral (Caco-2 cell monolayers; second series, second value) [%] | Caco-2 assay % basolateral (Caco-2 cell monolayers; second series, third value) [%] | concentration at 20 min [1, 6] [ng/mL] | concentration at 60 min [1, 6] [ng/mL] | Compound | further results
1 | > 50 | > 50 | 0.1 | 0.1 | 0.1 | 268 | 2.5 | 0 | 3.1 | 0.6 | 0 | 3.1 | 0.6 | > 100 | > 100 |  |  |  |  |  | N=C(N)Nc1ccc(CNC(=O)[C@H](CCc2ccccc2)NC(=O)C(CO)NS(=O)(=O)Cc2ccccc2)cc1 (stereo partly shown) [WX-550, Benzylsulfonyl-(D)-Ser-HomoPhe-(4-guanidinobenzyl)amide hydrochloride] | concentration at 20 min [1, 4]: 0 ng/mL; concentration at 40 min [1, 4]: 0 ng/mL; concentration at 60 min [1, 4]: 0 ng/mL; concentration at 20 min [1, 5]: 0 ng/mL; concentration at 40 min [1, 5]: 300 ng/mL; concentration at 60 min [1, 5]: 0 ng/mL; c in the serum 1st analysis ([1]; 2.5 mg/kg i.v., time of sample collection 0): 7.2 µg/mL; c in the serum 1st analysis ([1]; 2.5 mg/kg i.v., time of sample collection 10): 0.7 µg/mL; c in the serum 1st analysis ([1]; 2.5 mg/kg i.v., time of sample collection 30): 0.02 µg/mL
2 |  |  | 0.047 | 0.047 | 0.047 | 176 |  | 0.4 | 1.0 | 4.5 | 0.4 | 1.0 | 4.5 | 36 |  | 0.2 | 0.6 | 7.0 | 100 | 200 | N=C(N)Nc1ccc(CNC(=O)CNC(=O)C(CO)NS(=O)(=O)Cc2cccc(Cl)c2)cc1 (stereo not drawn) [WX-C318, 3-Chlorobenzyl-sulfonyl-(D)-Ser-Gly-(4-guanidinobenzyl)amide hydrochloride] | Ki Thrombin (Thrombin): no inh. at 100 μM *); Ki Thrombin (Thrombin; summary table): no inh. at 100 μM *); Ki Plasmin (Plasmin): no inh. at 100 μM *); Ki Plasmin (Plasmin; summary table): no inh. at 100 μM *); concentration at 20 min [1, 7]: 200 ng/mL; concentration at 40 min [1, 7]: 50 ng/mL; concentration at 60 min [1, 7]: 200 ng/mL; concentration at 20 min [1, 8]: 100000 ng/mL; concentration at 20 min [1, 9]: 82600 ng/mL; concentration at 40 min [1, 8]: 5400 ng/mL; concentration at 40 min [1, 9]: 6200 ng/mL; concentration at 60 min [1, 8]: 7500 ng/mL; concentration at 60 min [1, 9]: 7700 ng/mL; c in the serum 2nd analysis [1, 10]: 48.4 µg/mL; c in the serum 1st analysis [1, 11]: 4.3 µg/mL; c in the serum 2nd analysis [1, 11]: 5.5 µg/mL; c in the serum 1st analysis [1, 12]: 0.7 µg/mL; c in the serum 2nd analysis [1, 12]: 1.4 µg/mL
3 | > 100 | > 100 | 0.041 | 0.041 | 0.041 | 109 | 130 | 0.2 | 0.2 | 0.1 | 0.2 | 0.2 | 0.1 | > 100 | > 100 | 0.1 | 0.1 | 0 | 100 | 200 | CN(CC(=O)NCc1ccc(NC(=N)N)cc1)C(=O)C(CO)NS(=O)(=O)Cc1ccccc1 (stereo not shown) [WX-538, benzylsulfonyl-(D)-Ser-N-Me-Gly-(4-guanidinobenzyl)amide] | concentration at 40 min [1, 6]: 50 ng/mL; concentration at 20 min [1, 8]: 2500 ng/mL; concentration at 40 min [1, 8]: 3500 ng/mL; concentration at 60 min [1, 8]: 2300 ng/mL; c in the serum 1st analysis [1, 10]: 45.8 µg/mL; c in the serum 1st analysis [1, 11]: 5.5 µg/mL; c in the serum 1st analysis [1, 12]: 0.6 µg/mL
